Like-named read-outs stand apart in the source and are kept apart here.
What was measured:
[1] = test system: KMS12-BM (NIK WT) multiple myeloma cells; test: Antiproliferative activity on KMS12-BM multiple myeloma cells (CellTiter-Glo); type: cell-based, human; conditions: 96 hr treatment, averaged values, read-out: KMS-12 Proliferation inhibition (IC50 (nM))
In short: (§1)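 Cells plated at 15000 (JJN3) or 20000 (KMS12BM) per well and treated 96 h at 37° C, 5% CO2, final DMSO 0.3%, 9-point 1:3 dilutions. Viability by CellTiter-Glo luminescence; time-zero blank subtracted, growth expressed as percent of untreated control.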

[2] = test system: JJN-3 (NIK translocated) multiple myeloma cells; test: Antiproliferative activity on JJN-3 multiple myeloma cells (CellTiter-Glo); type: cell-based, human; conditions: JJN-3 (NIK translocated) cells, 96 hr treatment, averaged values, read-out: JJN-3 Proliferation inhibition (IC50 (nM))
In short: as §1

[3] = test system: P-IKKα levels in L363 (NIK translocated multiple myeloma) cells; test: Effect of compounds on P-IKKα levels in L363 cells (Mesoscale sandwich immuno-assay); type: cell-based, human; conditions: 2 hr treatment, averaged values, read-out: Inhibition of pIKKα_L-363 (IC50 (nM))
Experimental: Effect of Compounds on P-IKKα Levels in L363 (NIK Translocated Multiple Myeloma) Cells
All compounds tested were dissolved in DMSO and further dilutions were made in culture medium. Final DMSO concentration was 1% (v/v) in cell assays. The human L363 cells (ATCC) were cultured in RPMI 1640 medium supplemented with GlutaMax and 10% fetal calf serum (PAA). Cells were routinely maintained at densities of 0.2×10^6 cells per ml-1×10^6 cells per ml at 37° C. in a humidified 5% CO2 atmosphere. Cells were passaged twice a week splitting back to obtain the low density. Cells were seeded in 96 well plates (Nunc 167008) at 2×10^6 per ml media in a volume of 75 μl per well plus 25 μl 1 μg/ml recombinant human B-cell activating factor (BAFF/BLyS/TNFSF13B). Seeded cells were incubated at 37° C. in a humidified 5% CO2 atmosphere for 24 hr. Drugs and/or solvents were added (20 μl) to a final volume of 120 μl. Following 2 hr treatment plates were removed from the incubator and cell lysis was achieved by the addition of 30 μl 5× lysis buffer followed by shaking on a plate shaker at 4° C. for 10 min. At the end of this incubation lysed cells were centrifuged at 800×g for 20 min at 4° C. and the lysate was assessed for P-IKK levels by sandwich immuno-assay carried out in anti-rabbit antibody coated Mesoscale plates. Within an experiment, the results for each treatment were the mean of 2 replicate wells. For initial screening purposes, compounds were tested using an 8 point dilution curve (serial 1:3 dilutions). […] The blank incubation value was subtracted from all control and sample values. To determine the IC50 a sigmoidal curve was fitted to the plot of % inhibition of control P-IKKα levels versus Log10 compound concentration.

[4] = target: recombinant human NF-kappaB-inducing Kinase (NIK/MAP3K14) (Homo sapiens, UniProt Q99558); test: Inhibition of auto-phosphorylation of recombinant human NIK/MAP3K14 activity (AlphaScreen); type: biochemical; conditions: 25 microM ATP, averaged over all measurements on all batches
Chain of recombinant human NF-kappaB-inducing Kinase (NIK/MAP3K14) (Q99558 whole entry): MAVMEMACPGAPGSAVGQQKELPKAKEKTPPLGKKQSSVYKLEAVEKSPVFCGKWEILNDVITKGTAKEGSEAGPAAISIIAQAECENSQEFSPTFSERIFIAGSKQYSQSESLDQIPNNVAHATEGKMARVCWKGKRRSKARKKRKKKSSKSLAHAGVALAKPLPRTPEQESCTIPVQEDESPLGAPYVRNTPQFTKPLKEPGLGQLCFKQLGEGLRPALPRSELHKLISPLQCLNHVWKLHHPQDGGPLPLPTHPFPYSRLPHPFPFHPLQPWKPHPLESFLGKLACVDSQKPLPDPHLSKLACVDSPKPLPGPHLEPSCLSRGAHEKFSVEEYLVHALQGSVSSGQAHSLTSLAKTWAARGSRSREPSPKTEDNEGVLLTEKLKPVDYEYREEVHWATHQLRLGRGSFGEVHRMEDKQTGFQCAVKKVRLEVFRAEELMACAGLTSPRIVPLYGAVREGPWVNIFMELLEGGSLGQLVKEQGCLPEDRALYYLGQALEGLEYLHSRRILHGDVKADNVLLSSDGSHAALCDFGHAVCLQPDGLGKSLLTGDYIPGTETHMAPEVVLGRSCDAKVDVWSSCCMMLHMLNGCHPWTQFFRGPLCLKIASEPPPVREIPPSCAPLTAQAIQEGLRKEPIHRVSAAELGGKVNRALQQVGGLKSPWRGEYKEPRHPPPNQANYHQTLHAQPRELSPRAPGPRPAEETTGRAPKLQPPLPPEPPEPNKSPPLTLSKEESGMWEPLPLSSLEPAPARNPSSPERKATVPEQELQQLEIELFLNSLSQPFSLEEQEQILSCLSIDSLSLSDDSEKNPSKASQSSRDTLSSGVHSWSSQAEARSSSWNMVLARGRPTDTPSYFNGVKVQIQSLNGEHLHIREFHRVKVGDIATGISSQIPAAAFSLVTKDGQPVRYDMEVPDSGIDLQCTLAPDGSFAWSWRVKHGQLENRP

Row | SMILES | IC50 ([1]; Homo sapiens, KMS-12-BM, 96 h) [nM] | IC50 ([2]; Homo sapiens, JJN-3, 96 h) [nM] | IC50 ([3]; Homo sapiens, L-363, 2 h) [nM] | IC50 [4] [nM] | melting point [°C] | IC50 [3] [nM] | IC50 [1] [nM] | IC50 [2] [nM]
1 | COc1ncc(C(F)(F)F)cc1Nc1nccc(-c2cc(C#N)c3c(c2)[C@@](C)(CO)CN3)n1 [Compound 183] | > 10000 | 63 | 40.7 | 15.8 | 209 |  |  | 
2 | Cc1cnc(OCC2CN(C)CCO2)c(Nc2nccc(-c3cc(C#N)c4c(c3)[C@@](C)(CO)CN4)n2)c1 (single isomer, unassigned) [Compound 152] |  |  |  | 14.1 | 140 | 85.1 |  | 
3 | Cc1cnc(OC2CCN(C)CC2F)c(Nc2nccc(-c3cc(C#N)c4c(c3)[C@@](C)(CO)CN4)n2)c1 (some centres unmarked) [Compound 155] |  |  |  | 12 | 220 | 19.5 | ~2880 | 81
4 | CN1CCCC(COc2ncc(Cl)cc2Nc2nccc(-c3cc(C#N)c4c(c3)[C@@](C)(CO)CN4)n2)C1 (single isomer, unassigned) [Compound 56] |  |  |  | 3.5 | 126 | ~7240 | ~148 | 7
5 | Cc1cc(Nc2nccc(-c3cc(C#N)c4c(c3)[C@@](C)(CO)CN4)n2)c(=O)n(CC2(C)COC2)c1 [Compound 29i] | > 10000 | 100 | 3.7 | 3 | 129 |  |  | 
6 | Cc1cc(Nc2nccc(-c3cc(C#N)c4c(c3)[C@@](C)(CO)CN4)n2)c(OC(C)C)nc1CCN1CC(F)C1 [Compound 157] | > 10000 | 62 | 25.7 | 9.3 | 173 |  |  | 
7 | CN(C)C(=O)COc1ncc(Cl)cc1Nc1nccc(-c2cc(C#N)c3c(c2)[C@@](C)(CO)CN3)n1 [Compound 52] | 871 | 251 | 0.7 | ~1.48 | 281 |  |  | 
8 | COCCOc1ncc(F)cc1Nc1nccc(-c2cc(C#N)c3c(c2)[C@@](C)(CO)CN3)n1 [Compound 61] | > 10000 | 389 | 19.5 | 3 | 186 |  |  | 
9 | C[C@]1(CO)CNc2c(C#N)cc(-c3ccnc(Nc4ccc[nH]c4=O)n3)cc21 [Compound 8i] | > 10000 | 776 | 74.1 | 4.5 | > 250 |  |  | 
10 | CN(C)CCn1cc(Cl)cc(Nc2nccc(-c3cc(C#N)c4c(c3)[C@@](C)(CO)CN4)n2)c1=O [Compound 12i] | 813 | 18 | 0.9 | 1.1 | 198 |  |  | 
11 | Cc1cc(Nc2nccc(-c3cc(C#N)c4c(c3)[C@@](C)(CO)CN4)n2)c(=O)n(CC(C)N2CCOCC2)c1 (single isomer, unassigned) [Compound 22i] | 9120 | 33 | 2.1 | 3.4 | 138 |  |  | 
12 | Cc1cnc(C#N)cc1Nc1nccc(-c2cc(C#N)c3c(c2)[C@@](C)(CO)CN3)n1 [Compound 170] | > 10000 | 5 | 1 | 1.1 | 279 |  |  | 
13 | Cc1cc(Nc2nccc(-c3cc(C#N)c4c(c3)[C@@](C)(CO)CN4)n2)c(=O)n(CCN2CC(F)(F)C2)c1 [Compound 17i] | > 10000 | 33 | 1.8 | 1.9 | 190 |  |  | 
14 | Cc1ncc(C(=O)N2CCN(C)CC2)cc1Nc1nccc(-c2cc(C#N)c3c(c2)[C@@](C)(CO)CN3)n1 [Compound 166] |  |  | 229 | 25.7 | 150 |  |  | 
15 | Cc1cc(Nc2nccc(-c3cc(C#N)c4c(c3)[C@@](C)(COC(=O)C(C)C)CN4)n2)c(=O)n(CCN2CC(C)OC(C)C2)c1 (some centres unmarked) [Compound 24i] | > 10000 | 32 | 5.5 | 23.4 | 120 |  |  | 
16 | COc1cnc(C)cc1Nc1nccc(-c2cc(C#N)c3c(c2)[C@@](C)(CO)CN3)n1 [Compound 162] | > 10000 | 60 | 1.3 | 3 | > 260 |  |  | 
17 | Cc1ncc(CO)cc1Nc1nccc(-c2cc(C#N)c3c(c2)[C@@](C)(CO)CN3)n1 [Compound 169] | 4900 | 263 | 9.9 | 2.7 | > 260 |  |  | 
18 | Cc1cc(Nc2ncnc(-c3cc(C#N)c4c(c3)[C@@](C)(CO)CN4)n2)c(=O)n(C)c1 [Compound 30i] |  |  | 14.5 | 4.6 | 276 |  |  | 
19 | Cc1cc(Nc2nccc(-c3cc(C#N)c4c(c3)[C@@](C)(CO)CN4)n2)c(C)nc1OC1CCOCC1 [Compound 174] |  |  | 4 | 6.5 | 199 |  |  | 
20 | CNC(=O)c1cc(Nc2nccc(-c3cc(C#N)c4c(c3)[C@@](C)(CO)CN4)n2)c(C)cn1 [Compound 165] | > 10000 | 117 | 6.2 | 1.3 |  |  |  | 
21 | CC1(C)CNc2c(C#N)cc(-c3ccnc(Nc4cc(Cl)cnc4C(=O)N4CCC(O)C4)n3)cc21 (centres unmarked) [Compound 180] |  |  | 617 | 339 | 143 to 145 |  |  | 
22 | CC1(C)CNc2c(C#N)cc(-c3ccnc(Nc4cc(F)cn(CCN5CC(F)C5)c4=O)n3)cc21 [Compound 28i] |  |  | 21.4 | 7.6 | 235 |  |  | 
23 | Cc1nc(P(C)(C)=O)c(Cl)cc1Nc1nccc(-c2cc(C#N)c3c(c2)[C@@](C)(CO)CN3)n1 [Compound 90] | > 10000 | 5890 | 32.4 | 1.9 |  |  |  | 
24 | COCCNc1nc(OC)c(Nc2nccc(-c3cc(C#N)c4c(c3)C(C)(C)CN4)n2)cc1Cl [Compound 98] | > 10000 | 832 | 45.7 | 50.1 |  |  |  | 
25 | COc1nc(CC(C)C)c(Nc2nccc(-c3cc(C#N)c4c(c3)[C@@](C)(CO)CN4)n2)cc1C [Compound 161] | > 10000 | 417 | 46.8 | 28.2 |  |  |  | 
26 | Cc1cc(Nc2nccc(-c3cc(C#N)c4c(c3)[C@@](C)(CO)CN4)n2)c(=O)n(CC2COCCN2C)c1 (some centres unmarked) [Compound 26i] | > 10000 | 28 | 2.3 | 2.1 |  |  |  | 

— patent publication US11001569B2, “6-membered heteroaromatic substituted cyanoindoline derivatives as NIK inhibitors” (Janssen Pharmaceutica NV, priority 2016, dated 2021)
